Assay [1] concerns the target T1, recombinant E. coli aminopeptidase P (Escherichia coli, UniProt P15034).
T1 construct: supplied by Dr. Tadashi Yoshimoto (Nagasaki University)
The assay can be described thus: Aminopeptidase P inhibition, release of arginine from Arg-Pro-Pro (fluorescent assay). It is filed as biochemical. The text has this:
(§1) Enzymes--Membrane-bound aminopeptidase P was purified to homogeneity from bovine lung (14) and from rat lung. Partially purified membrane-bound aminopeptidase P from human lung was obtained by treatment of lung microsomes with phosphatidylinositol-specific phospholipase C (B. thuringiensis) (ICN, Costa Mesa, Calif.) followed by centrifugation as described previously (14). Membrane dipeptidase was purified from rat lung microsomes (manuscript in preparation). Recombinant E. coli aminopeptidase P (22) and purified lamb kidney prolyl oligopeptidase (23) were generally supplied by Dr. Tadashi Yoshimoto (Nagasaki University). Purified porcine kidney prolidase and purified porcine kidney aminopeptidase M was obtained from Sigma (St. Louis, Mo.).
Enzyme Kinetics--Aminopeptidase P activity was determined by measuring the release of arginine from Arg-Pro-Pro by a fluorescent assay described previously (14). […] Each mixture was run in duplicate. Aliquots were removed from each incubation mixture at various times and assayed for the amount of arginine present to determine the reaction velocity. In general, reaction velocities were calculated from data representing less than 20% cleavage of substrate. Ki and Ki ' (=αKi) were determined from plots of 1/v versus concentration of inhibitor "i" (26) and S/v versus concentration of inhibitor "i" (27), respectively. These parameters were also determined from the slope replot and 1/v-intercept replot, respectively, of the 1/v versus 1/S plot (28). See e.g., FIG. 1B. The values from the two treatments of the data were averaged for each experiment. Experiments for each enzyme preparation were performed twice and the results averaged.

In a further assay the target is T2, microsomal dipeptidase (Rattus norvegicus, UniProt P31430).
T2 construct: Membrane dipeptidase was purified from rat lung microsomes; from tissue; host or cells: rat lung microsomes
T2 sequence (P31430 17-410): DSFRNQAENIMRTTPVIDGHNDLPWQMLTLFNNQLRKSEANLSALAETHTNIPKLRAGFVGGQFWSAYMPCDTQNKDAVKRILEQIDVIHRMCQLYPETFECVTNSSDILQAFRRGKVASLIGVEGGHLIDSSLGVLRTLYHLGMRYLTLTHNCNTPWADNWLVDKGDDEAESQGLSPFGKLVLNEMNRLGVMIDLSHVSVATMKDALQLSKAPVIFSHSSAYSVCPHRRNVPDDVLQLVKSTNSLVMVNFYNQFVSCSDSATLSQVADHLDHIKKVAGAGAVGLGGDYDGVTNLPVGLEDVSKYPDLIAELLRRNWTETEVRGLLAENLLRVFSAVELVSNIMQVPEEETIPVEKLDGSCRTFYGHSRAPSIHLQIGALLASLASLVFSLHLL
The assay is described as follows: Specificity of apstatin: microsomal (membrane) dipeptidase. It is filed as biochemical. Particulars: purified, rat lung; Gly-D-Phe, pH 8.0, HPLC-1.
Source text: as §1
Specificity of Apstatin--Apstatin was assayed for its ability to inhibit several other peptidases. […] Unless otherwise indicated, the source of each enzyme activity was a detergent extract of bovine lung prepared as described in (12-13). Activities were determined by a modification of the fluorescent assay described above (indicated by "FLUO") or by HPLC separation and quantitation of reaction products using the method described in (12) (method "HPLC-1") or the method described below (method "HPLC-2"). […]

Structures are written as SMILES. A value given as a limit tells only on which side of the number the result lay.

T1 sequence (P15034 whole entry): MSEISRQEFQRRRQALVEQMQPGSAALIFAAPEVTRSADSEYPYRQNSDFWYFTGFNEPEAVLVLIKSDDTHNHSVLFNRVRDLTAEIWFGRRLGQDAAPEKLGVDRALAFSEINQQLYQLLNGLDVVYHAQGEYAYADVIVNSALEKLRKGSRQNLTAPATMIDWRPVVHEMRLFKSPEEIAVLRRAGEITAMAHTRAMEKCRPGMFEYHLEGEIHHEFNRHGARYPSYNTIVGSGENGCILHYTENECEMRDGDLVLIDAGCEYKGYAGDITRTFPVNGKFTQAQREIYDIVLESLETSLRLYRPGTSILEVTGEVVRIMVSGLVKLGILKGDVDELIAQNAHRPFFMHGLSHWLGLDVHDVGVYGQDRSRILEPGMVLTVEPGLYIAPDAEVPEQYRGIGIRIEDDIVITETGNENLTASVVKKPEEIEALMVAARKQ

A word on the Ki: it is the dissociation constant of the complex between target and ligand, obtained from inhibition or displacement. As a reminder, the IC50 is the concentration needed to halve the response being measured. For the compound `C[C@H](NC(=O)[C@@H]1CCCN1C(=O)[C@@H]1CCCN1C(=O)[C@@H](O)[C@H](N)Cc1ccccc1)C(N)=O` [apstatin, N-[(2S, 3R)-3-amino-2-hydroxy-4-phenylbutanoyl]-L-prolyl-L-prolyl-Lalaninamide], the “α (αKi = equilibrium constant for enzyme-inhibitor binding at infinite substrate concentration)” value in assay [1] (E. coli, recombinant) is recorded as 2.5. Moreover, the inhibition constant Ki in assay [1] (E. coli, recombinant, substrate Arg-Pro-Pro, 0.1 M Hepes pH 8.0, 39° C.) came to 14 µM. Also, the type of inhibition entry in assay [1] (recombinant E. coli aminopeptidase P) is “linear mixed-type”. Also, the IC50 at microsomal dipeptidase is above 800 µM.

Values taken from patent US5656603A (Loyola University of Chicago, priority 1995, dated 1997).
